From patent publication US9409952B2, “Peptide-compound cyclization method” (Chugai Seiyaku Kabushiki Kaisha, priority 2011, dated 2016)
Like-named read-outs stand apart in the source and are kept apart here. Starred links: 1 amine or outer side, 2 acyl side, 3 side chain; linkers in the order of their positions; H or OH if unused. Positions of bridges follow the written chain, without caps; N, C: chain ends. Non-standard residues stand in square brackets, D forms with d. Residues, ends and D or L forms follow the SMILES beside them. *: point of attachment. NMePhe(3-Cl) = CN[C@@H](Cc1cccc(Cl)c1)C(=O)O; NMeF = CN[C@@H](Cc1ccccc1)C(=O)O; NMeβAla = CN(CCC(=O)[*:2])[*:1]; NMeL = CN[C@@H](CC(C)C)C(=O)O; NMeA = CN[C@@H](C)C(=O)O; Piperidide = C1CCN(*)CC1; dNMeA = CN[C@H](C)C(=O)O; Sar = CNCC(=O)O; tBu = CC(C)(C)*

Columns and labels:
[1] = Metabolic stability in human hepatic microsome; type: in vitro ADME; settings: microsomes
[2] = PAMPA (parallel artificial membrane permeability assay); type: in vitro ADME; settings: PAMPA
How it was run: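 Artificial membrane was 10% (w/v) egg lecithin plus 0.5% (w/v) cholesterol in dodecane on a PVDF filter. A 10 mM DMSO stock was added at 0.5% (v/v) to donor buffer (50 mM MOPSO, pH 6.5, 5.0% glycocholic acid). After 18 h at 37 °C, LC/MS or LC/UV gave donor and acceptor levels for Pe.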

[3] = pH 7.4, human hepatic microsome, NADPH(+), read-out: CL NADPH(+)
[4] = membrane permeation rate (Pe), 50 mM MOPSO buffer pH 6.5 with 5.0% glycocholic acid, 37° C., 18 hours, read-out: iPAMPA Pe

Row | Structure (SMILES) | microsomal CLint at 1 uM [1, 3] | Papp at 18 hours, 50 µM [2, 4] | microsomal CLint at 1 uM ([1]; human, pH 7.4, CL NADPH(+)) | Papp at 18 hours, 50 µM ([2]; pH 6.5)
1 | CC[C@H](C)[C@H](NC(=O)[C@H](CC(C)C)N(C)C(=O)[C@H](CC(C)C)NC(=O)[C@H](C)N(C)C(=O)[C@@H]1CC(=O)N[C@@H](C)C(=O)N(C)[C@@H](CC(C)C)C(=O)N[C@@H](C(C)C)C(=O)N[C@@H](C)C(=O)N(C)[C@@H](CC(C)C)C(=O)N(C)[C@@H](CC(C)C)C(=O)N(C)[C@@H](Cc2ccccc2)C(=O)N[C@@H]([C@@H](C)O)C(=O)N(C)[C@@H](Cc2ccccc2)C(=O)N1)C(=O)N1CCCCC1 [DP-945] (A[NMeL]VA[NMeL][NMeL][NMeF]T[NMeF]D[NMeA]L[NMeL]I-Piperidide; lactam N-10) | 28 µL/min/mg | 0.1 ×10⁻⁶ cm/s | – | –
2 | CC[C@H](C)[C@@H]1NC(=O)[C@H](CC(C)C)N(C)C(=O)[C@H](Cc2cccc(Cl)c2)N(C)C(=O)[C@H](Cc2ccccc2)NC(=O)[C@H](CC(C)C)N(C)C(=O)[C@H](C)N(C)C(=O)[C@H]([C@@H](C)O)NC(=O)[C@H](C)N(C)C(=O)C[C@@H](C(=O)N[C@H](C(=O)N(C)[C@@H](CC(C)C)C(=O)N(C)[C@@H](Cc2ccccc2)C(=O)N[C@H](C(=O)N2CCCCC2)[C@@H](C)CC)[C@@H](C)CC)NC(=O)[C@H](C(C)C)NC1=O [DP-946] ([NMeA]T[NMeA][NMeL]F[NMePhe(3-Cl)][NMeL]IVDI[NMeL][NMeF]I-Piperidide; lactam N-10) | 15 µL/min/mg | 0.1 ×10⁻⁶ cm/s | – | –
3 | CC[C@H](C)[C@@H]1NC(=O)[C@H](CC(C)C)N(C)C(=O)[C@H](Cc2ccccc2)N(C)C(=O)[C@H](Cc2ccccc2)NC(=O)[C@H](C)N(C)C(=O)[C@H](CC(C)C)N(C)C(=O)[C@@H](C(C)C)NC(=O)C[C@@H](C(=O)N(C)[C@@H](CC(C)C)C(=O)N[C@H](C(=O)N(C)[C@@H](C)C(=O)N[C@H](C(=O)N2CCCCC2)[C@@H](C)CC)C(C)C)NC(=O)[C@H](CC(C)C)NC(=O)[C@H]([C@@H](C)O)NC1=O [DP-947] ([dV][NMeL][NMeA]F[NMeF][NMeL]ITLD[NMeL]V[NMeA]I-Piperidide; lactam N-10) | 14 µL/min/mg | 0.1 ×10⁻⁶ cm/s | – | –
4 | CC[C@H](C)[C@H](NC(=O)[C@H](CC(C)C)N(C)C(=O)[C@@H]1CCCN1C(=O)[C@H](Cc1ccccc1)N(C)C(=O)[C@@H]1CC(=O)N(C)CCC(=O)N[C@@H](Cc2ccccc2)C(=O)N(C)[C@@H](CC(C)C)C(=O)N[C@@H]([C@@H](C)O)C(=O)N[C@@H](C(C)C)C(=O)NCC(=O)N(C)[C@@H](CC(C)C)C(=O)N[C@@H](CC(C)C)C(=O)N(C)[C@@H](CC(C)C)C(=O)N1)C(=O)N1CCCCC1 [DP-948] ([NMeβAla]F[NMeL]TVG[NMeL]L[NMeL]D[NMeF]P[NMeL]I-Piperidide; lactam N-10) | 20 µL/min/mg | 0.78 ×10⁻⁶ cm/s | – | –
5 | CC[C@H](C)[C@H](NC(=O)[C@@H](NC(=O)[C@H](Cc1ccccc1)NC(=O)[C@@H]1CC(=O)N[C@H](C(C)C)C(=O)N(C)[C@@H](C)C(=O)N(C)[C@@H](CC(C)C)C(=O)N[C@@H]([C@@H](C)O)C(=O)N(C)CC(=O)N(C)[C@@H](Cc2ccccc2)C(=O)N(C)[C@@H](CC(C)C)C(=O)N(C)[C@@H](Cc2cccc(Cl)c2)C(=O)N(C)[C@@H](CC(C)C)C(=O)N[C@@H](C)C(=O)N1)C(C)C)C(=O)N1CCCCC1 [DP-949] ([dV][NMeA][NMeL]T[Sar][NMeF][NMeL][NMePhe(3-Cl)][NMeL]ADFVI-Piperidide; lactam N-11) | 37 µL/min/mg | 0.11 ×10⁻⁶ cm/s | – | –
6 | CC[C@H](C)[C@@H]1NC(=O)[C@H](CC(C)C)NC(=O)[C@H](C)N(C)C(=O)[C@H](CC(C)C)N(C)C(=O)[C@H](CC(C)C)NC(=O)[C@H](Cc2cccc(Cl)c2)N(C)C(=O)[C@H]([C@@H](C)O)NC(=O)[C@H](C)N(C)C(=O)[C@H](C(C)C)NC(=O)[C@H](C)N(C)C(=O)C[C@@H](C(=O)N(C)[C@@H](Cc2ccccc2)C(=O)N(C)[C@@H](CC(C)C)C(=O)N[C@H](C(=O)N2CCCCC2)[C@@H](C)CC)NC1=O [DP-950] ([NMeA]V[NMeA]T[NMePhe(3-Cl)]L[NMeL][NMeA]LID[NMeF][NMeL]I-Piperidide; lactam N-11) | 12 µL/min/mg | 0.1 ×10⁻⁶ cm/s | – | –
7 | CC[C@H](C)[C@H](NC(=O)[C@@H](NC(=O)[C@H](C)N(C)C(=O)[C@@H]1CC(=O)N(C)[C@@H](C)C(=O)N(C)[C@@H](CC(C)C)C(=O)N(C)[C@@H](CC(C)C)C(=O)N[C@@H](CC(C)C)C(=O)N(C)[C@@H](CC(C)C)C(=O)N(C)[C@@H](Cc2ccccc2)C(=O)N(C)[C@@H](Cc2ccccc2)C(=O)N[C@@H]([C@@H](C)O)C(=O)N(C)[C@@H](C)C(=O)N(C)[C@@H](CC(C)C)C(=O)N1)C(C)C)C(=O)N1CCCCC1 [DP-951] ([NMeA][NMeL][NMeL]L[NMeL][NMeF][NMeF]T[NMeA][NMeL]D[NMeA]VI-Piperidide; lactam N-11) | 11 µL/min/mg | 0.1 ×10⁻⁶ cm/s | – | –
8 | CC[C@H](C)[C@H](NC(=O)[C@H](Cc1ccccc1)NC(=O)[C@@H]1CC(=O)N[C@@H](C)C(=O)N[C@@H]([C@@H](C)O)C(=O)N(C)CC(=O)N[C@@H](CC(C)C)C(=O)N2CCC[C@H]2C(=O)N(C)[C@@H](CC(C)C)C(=O)N[C@@H](Cc2ccccc2)C(=O)N(C)[C@@H](Cc2ccccc2)C(=O)N(C)[C@@H](CC(C)C)C(=O)N[C@@H](C)C(=O)N(C)[C@@H](CC(C)C)C(=O)N1)C(=O)N1CCCCC1 [DP-952] (AT[Sar]LP[NMeL]F[NMeF][NMeL]A[NMeL]DFI-Piperidide; lactam N-12) | – | – | 91 µL/min/mg | 4.4 ×10⁻⁶ cm/s
9 | CC[C@H](C)[C@H](NC(=O)[C@@H]1CC(=O)N[C@@H](Cc2ccccc2)C(=O)N(C)[C@@H](CC(C)C)C(=O)N[C@@H](C)C(=O)N(C)[C@@H](CC(C)C)C(=O)N[C@@H](COC(C)(C)C)C(=O)N(C)[C@@H](CC(C)C)C(=O)N(C)[C@@H](CC(C)C)C(=O)N[C@@H]([C@@H](C)O)C(=O)N[C@@H](Cc2ccccc2)C(=O)N(C)[C@@H](Cc2ccccc2)C(=O)N(C)[C@@H](C)C(=O)N1)C(=O)N[C@H](C(=O)N1CCCCC1)[C@@H](C)CC [DP-953] (F[NMeL]A[NMeL]S(tBu)[NMeL][NMeL]TF[NMeF][NMeA]DII-Piperidide; lactam N-12) | 8 µL/min/mg | 0.1 ×10⁻⁶ cm/s | – | –
10 | CC[C@H](C)[C@H](NC(=O)[C@@H](NC(=O)[C@@H]1CC(=O)N(C)CCC(=O)N[C@@H](Cc2ccccc2)C(=O)N(C)[C@@H](Cc2ccccc2)C(=O)N(C)[C@@H](CC(C)C)C(=O)N[C@@H]([C@@H](C)O)C(=O)N(C)[C@@H](C)C(=O)N(C)[C@@H](CC(C)C)C(=O)N[C@@H](C(C)C)C(=O)N(C)[C@@H](CC(C)C)C(=O)N[C@@H](COC(C)(C)C)C(=O)N(C)[C@@H](CC(C)C)C(=O)N1)C(C)C)C(=O)N1CCCCC1 [DP-954] ([NMeβAla]F[NMeF][NMeL]T[NMeA][NMeL]V[NMeL]S(tBu)[NMeL]DVI-Piperidide; lactam N-12) | 26 µL/min/mg | 0.1 ×10⁻⁶ cm/s | – | –
11 | CC[C@H](C)[C@H](NC(=O)[C@@H]1CC(=O)N[C@@H](C)C(=O)N[C@@H]([C@@H](C)O)C(=O)N(C)CC(=O)N[C@@H](CC(C)C)C(=O)N2CCC[C@H]2C(=O)N(C)[C@@H](CC(C)C)C(=O)N[C@@H](Cc2ccccc2)C(=O)N(C)[C@@H](Cc2ccccc2)C(=O)N(C)[C@@H](C)C(=O)N(C)[C@@H](CC(C)C)C(=O)N[C@@H](C)C(=O)N(C)[C@@H](CC(C)C)C(=O)N1)C(=O)N1CCCCC1 [DP-955] (AT[Sar]LP[NMeL]F[NMeF][NMeA][NMeL]A[NMeL]DI-Piperidide; lactam N-13) | 30 µL/min/mg | 6.3 ×10⁻⁶ cm/s | – | –
12 | CC[C@H](C)[C@@H]1NC(=O)[C@H](C)N(C)C(=O)[C@H](CC(C)C)N(C)C(=O)[C@H](Cc2ccccc2)NC(=O)[C@H](CC(C)C)N(C)C(=O)[C@H](CC(C)C)N(C)C(=O)[C@H](C)N(C)C(=O)[C@H](Cc2ccccc2)N(C)C(=O)[C@@H](C)N(C)C(=O)C[C@@H](C(=O)N[C@H](C(=O)N2CCCCC2)[C@@H](C)CC)NC(=O)[C@H](CC(C)C)N(C)C(=O)[C@H]([C@@H](C)O)NC(=O)[C@H](CO)NC1=O [DP-956] ([dNMeA][NMeF][NMeA][NMeL][NMeL]F[NMeL][NMeA]IST[NMeL]DI-Piperidide; lactam N-13) | 40 µL/min/mg | 0.58 ×10⁻⁶ cm/s | – | –
13 | CC[C@H](C)[C@@H]1NC(=O)[C@H](CC(C)C)N(C)C(=O)[C@H](CC(C)C)N(C)C(=O)CN(C)C(=O)[C@H]([C@@H](C)O)NC(=O)[C@H](CC(C)C)N(C)C(=O)[C@H](CC(C)C)NC(=O)CCN(C)C(=O)C[C@@H](C(=O)N2CCCCC2)NC(=O)[C@H](C)NC(=O)[C@H](Cc2ccccc2)N(C)C(=O)[C@H](Cc2ccccc2)NC(=O)[C@H](CC(C)C)N(C)C1=O [DP-957] ([NMeβAla]L[NMeL]T[Sar][NMeL][NMeL]I[NMeL]F[NMeF]AD-Piperidide; lactam N-13) | 54 µL/min/mg | 4 ×10⁻⁶ cm/s | – | –
14 | CC[C@H](C)[C@@H]1NC(=O)CCN(C)C(=O)C[C@@H](C(=O)N2CCCCC2)NC(=O)[C@H](CC(C)C)N(C)C(=O)[C@H](Cc2ccccc2)NC(=O)[C@H](CC(C)C)N(C)C(=O)[C@H](CC(C)C)N(C)C(=O)[C@H](C)N(C)C(=O)[C@H](CC(C)C)N(C)C(=O)[C@H]([C@@H](C)O)NC(=O)[C@H](Cc2ccccc2)N(C)C(=O)[C@H](C)N(C)C(=O)[C@H](CC(C)C)N(C)C1=O [DP-958] ([NMeβAla]I[NMeL][NMeA][NMeF]T[NMeL][NMeA][NMeL][NMeL]F[NMeL]D-Piperidide; lactam N-13) | 31 µL/min/mg | 0.54 ×10⁻⁶ cm/s | – | –
15 | CC[C@H](C)[C@H](NC(=O)[C@H](Cc1ccccc1)N(C)C(=O)[C@H](Cc1ccccc1)N(C)C(=O)[C@@H]1CC(=O)N(C)CCC(=O)N[C@@H]([C@@H](C)CC)C(=O)N(C)[C@@H](Cc2ccccc2)C(=O)N(C)[C@@H](CC(C)C)C(=O)N[C@@H]([C@@H](C)O)C(=O)N(C)CC(=O)N(C)[C@@H](CC(C)C)C(=O)N[C@@H](C(C)C)C(=O)N(C)[C@@H](CC(C)C)C(=O)N1)C(=O)N1CCCCC1 [DP-961] ([NMeβAla]I[NMeF][NMeL]T[Sar][NMeL]V[NMeL]D[NMeF][NMeF]I-Piperidide; lactam N-10) | 33 µL/min/mg | 0.57 ×10⁻⁶ cm/s | – | –
